According to the supplement of paper PMC11451515:

What was measured:
Details in all cases: 48 h
SEM cells [1] = assay: AUC of viability dose-response curve (% viability x log10 dose units); higher = less sensitive
Summary of the method: (§1)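 Viability of medium-adapted leukemia cells was measured by CellTiter-Glo One luminescence after 48 h at 37°C with library compounds in DMSO. Doses were 11 threefold steps from 47 μM to 0.79 nM, in 1536-well plates at 500 or 1000 cells/well. Signals were normalised per plate to DMSO and cell-free wells and fitted with a four-parameter log-logistic model on log10 dose. Area under the curve was integrated by trapezoidal rule, with curves exceeding full viability scaled and failed quality-control curves removed.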

P12-Ichikawa [2] = assay: as above
Summary of the method: as §1

NOMO1 [3] = assay: as above
Summary of the method: as §1

SEM cells [4] = assay: cell viability relative to DMSO control; higher = less cytotoxic
Summary of the method: (§2)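 Viability values are per-plate percentages of DMSO wells, with background from cell-free wells. Library compounds in DMSO were pin-dosed, in an 11-point threefold series from 47 μM to 0.79 nM, onto NOMO1 or SEM (500 cells/well) or P12-Ichikawa (1000 cells/well) leukemia cells in 1536-well plates (5 μl). Those cells had been adapted for at least four passages in each medium, and CellTiter-Glo One luminescence was read after 48 h at 37°C.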

P12-Ichikawa [5] = assay: as above
Summary of the method: as §2

NOMO1 [6] = assay: as above
Summary of the method: as §2

O=C1NC(O)CCN1[C@@H]1O[C@H](CO)[C@@H](O)[C@H]1O (stereo partly specified)
AUC of viability dose-response curve
Details	NOMO1 [3]	P12-Ichikawa [2]	SEM cells [1]
HPLM + 10% dialyzed FBS	435	456	463
RPMI 5 mM glucose + 10% FBS	459	437	443
RPMI 5 mM glucose + 10% dialyzed FBS	457	467	465

cell viability [%]
Details	NOMO1 [6]	P12-Ichikawa [5]	SEM cells [4]
HPLM + 10% dialyzed FBS, 0.000781 µM	145	118	–
HPLM + 10% dialyzed FBS, 0.00234 µM	124	127	–
HPLM + 10% dialyzed FBS, 0.00702 µM	123	120	–
HPLM + 10% dialyzed FBS, 0.0211 µM	142	116	–
HPLM + 10% dialyzed FBS, 0.0632 µM	113	128	–
HPLM + 10% dialyzed FBS, 0.19 µM	131	129	–
HPLM + 10% dialyzed FBS, 0.569 µM	143	122	–
HPLM + 10% dialyzed FBS, 1.71 µM	116	106	–
HPLM + 10% dialyzed FBS, 5.12 µM	111	102	–
HPLM + 10% dialyzed FBS, 15.4 µM	92.2	110	–
HPLM + 10% dialyzed FBS, 46.1 µM	21	112	–
RPMI 5 mM glucose + 10% FBS, 0.000781 µM	121	–	114
RPMI 5 mM glucose + 10% FBS, 0.00234 µM	110	–	125
RPMI 5 mM glucose + 10% FBS, 0.00702 µM	104	–	123
RPMI 5 mM glucose + 10% FBS, 0.0211 µM	112	–	111
RPMI 5 mM glucose + 10% FBS, 0.0632 µM	110	–	114
RPMI 5 mM glucose + 10% FBS, 0.19 µM	110	–	125
RPMI 5 mM glucose + 10% FBS, 0.569 µM	105	–	117
RPMI 5 mM glucose + 10% FBS, 1.71 µM	105	–	111
RPMI 5 mM glucose + 10% FBS, 5.12 µM	109	–	115
RPMI 5 mM glucose + 10% FBS, 15.4 µM	108	–	134
RPMI 5 mM glucose + 10% FBS, 46.1 µM	32.3	–	122
RPMI 5 mM glucose + 10% dialyzed FBS, 0.000781 µM	112	118	–
RPMI 5 mM glucose + 10% dialyzed FBS, 0.00234 µM	108	119	–
RPMI 5 mM glucose + 10% dialyzed FBS, 0.00702 µM	113	131	–
RPMI 5 mM glucose + 10% dialyzed FBS, 0.0211 µM	108	124	–
RPMI 5 mM glucose + 10% dialyzed FBS, 0.0632 µM	110	116	–
RPMI 5 mM glucose + 10% dialyzed FBS, 0.19 µM	110	120	–
RPMI 5 mM glucose + 10% dialyzed FBS, 0.569 µM	125	120	–
RPMI 5 mM glucose + 10% dialyzed FBS, 1.71 µM	126	121	–
RPMI 5 mM glucose + 10% dialyzed FBS, 5.12 µM	111	110	–
RPMI 5 mM glucose + 10% dialyzed FBS, 15.4 µM	106	115	–
RPMI 5 mM glucose + 10% dialyzed FBS, 46.1 µM	34.8	107	–

COC1=CC=C(C=C1)C2CC(=N/N2C3=CC=C(C=C3)[S+](N)([O-])=O)\C4=CC=CC=C4 (stereo unspecified)
AUC of viability dose-response curve
Details	NOMO1 [3]	P12-Ichikawa [2]	SEM cells [1]
HPLM + 10% dialyzed FBS	330	387	323
RPMI 5 mM glucose + 10% FBS	355	354	293
RPMI 5 mM glucose + 10% dialyzed FBS	337	340	282

cell viability [%]
Details	NOMO1 [6]	P12-Ichikawa [5]	SEM cells [4]
HPLM + 10% dialyzed FBS, 0.000781 µM	82.7	95.3	83.3
HPLM + 10% dialyzed FBS, 0.00234 µM	91.2	91.6	91.2
HPLM + 10% dialyzed FBS, 0.00702 µM	98.8	102	91.4
HPLM + 10% dialyzed FBS, 0.0211 µM	92.9	102	104
HPLM + 10% dialyzed FBS, 0.0632 µM	97.4	99.5	110
HPLM + 10% dialyzed FBS, 0.19 µM	97.1	108	69.2
HPLM + 10% dialyzed FBS, 0.569 µM	94.9	108	86.3
HPLM + 10% dialyzed FBS, 1.71 µM	56.1	83.8	51.3
HPLM + 10% dialyzed FBS, 5.12 µM	24.4	63.1	30.9
HPLM + 10% dialyzed FBS, 15.4 µM	3.71	4.53	4.3
HPLM + 10% dialyzed FBS, 46.1 µM	1.86	2.18	2.47
RPMI 5 mM glucose + 10% FBS, 0.000781 µM	85.9	101	104
RPMI 5 mM glucose + 10% FBS, 0.00234 µM	85.1	90	86.1
RPMI 5 mM glucose + 10% FBS, 0.00702 µM	92.5	94	107
RPMI 5 mM glucose + 10% FBS, 0.0211 µM	102	94.4	104
RPMI 5 mM glucose + 10% FBS, 0.0632 µM	102	106	107
RPMI 5 mM glucose + 10% FBS, 0.19 µM	98.3	89.6	43.4
RPMI 5 mM glucose + 10% FBS, 0.569 µM	94.6	99.8	72.9
RPMI 5 mM glucose + 10% FBS, 1.71 µM	89.5	67.8	37.8
RPMI 5 mM glucose + 10% FBS, 5.12 µM	35.2	42	14.8
RPMI 5 mM glucose + 10% FBS, 15.4 µM	4.7	3.73	2.74
RPMI 5 mM glucose + 10% FBS, 46.1 µM	2.12	1.01	1.62
RPMI 5 mM glucose + 10% dialyzed FBS, 0.000781 µM	82.7	85.6	87.3
RPMI 5 mM glucose + 10% dialyzed FBS, 0.00234 µM	93.8	96.2	74
RPMI 5 mM glucose + 10% dialyzed FBS, 0.00702 µM	85.6	96.6	84.3
RPMI 5 mM glucose + 10% dialyzed FBS, 0.0211 µM	103	100	95.4
RPMI 5 mM glucose + 10% dialyzed FBS, 0.0632 µM	98	95.9	100
RPMI 5 mM glucose + 10% dialyzed FBS, 0.19 µM	86.2	85.9	60.1
RPMI 5 mM glucose + 10% dialyzed FBS, 0.569 µM	93.3	91.4	63.3
RPMI 5 mM glucose + 10% dialyzed FBS, 1.71 µM	59	65.8	45.9
RPMI 5 mM glucose + 10% dialyzed FBS, 5.12 µM	43.3	35.8	19
RPMI 5 mM glucose + 10% dialyzed FBS, 15.4 µM	4.24	4.09	2.63
RPMI 5 mM glucose + 10% dialyzed FBS, 46.1 µM	1.96	1.97	2.05

CC(C)C[C@H](NC(=O)[C@H](Cc1ccccc1)NC(=O)c1cnccn1)B(O)O
AUC of viability dose-response curve
Details	NOMO1 [3]	P12-Ichikawa [2]	SEM cells [1]
HPLM + 10% dialyzed FBS	182	173	138
RPMI 5 mM glucose + 10% FBS	171	173	147
RPMI 5 mM glucose + 10% dialyzed FBS	181	171	129

cell viability [%]
Details	NOMO1 [6]	P12-Ichikawa [5]	SEM cells [4]
HPLM + 10% dialyzed FBS, 0.000781 µM	99.7	96.4	82.8
HPLM + 10% dialyzed FBS, 0.00234 µM	106	92.9	88.2
HPLM + 10% dialyzed FBS, 0.00702 µM	108	106	95.9
HPLM + 10% dialyzed FBS, 0.0211 µM	119	106	46.6
HPLM + 10% dialyzed FBS, 0.0632 µM	21.6	4.77	5.6
HPLM + 10% dialyzed FBS, 0.19 µM	3.62	2.92	4.11
HPLM + 10% dialyzed FBS, 0.569 µM	4.25	2.65	3.83
HPLM + 10% dialyzed FBS, 1.71 µM	2.64	2.46	3.37
HPLM + 10% dialyzed FBS, 5.12 µM	2.22	1.35	2.58
HPLM + 10% dialyzed FBS, 15.4 µM	1.08	0.316	1.95
HPLM + 10% dialyzed FBS, 46.1 µM	0.274	-0.93	1.04
RPMI 5 mM glucose + 10% FBS, 0.000781 µM	83.7	93.4	90.9
RPMI 5 mM glucose + 10% FBS, 0.00234 µM	91.4	103	102
RPMI 5 mM glucose + 10% FBS, 0.00702 µM	99	107	113
RPMI 5 mM glucose + 10% FBS, 0.0211 µM	96.6	101	38.4
RPMI 5 mM glucose + 10% FBS, 0.0632 µM	21.6	4.71	6.07
RPMI 5 mM glucose + 10% FBS, 0.19 µM	6.12	2.56	3.74
RPMI 5 mM glucose + 10% FBS, 0.569 µM	2.91	2.17	3.71
RPMI 5 mM glucose + 10% FBS, 1.71 µM	1.66	1.91	3.19
RPMI 5 mM glucose + 10% FBS, 5.12 µM	1.61	1.36	2.6
RPMI 5 mM glucose + 10% FBS, 15.4 µM	1.02	0.651	1.56
RPMI 5 mM glucose + 10% FBS, 46.1 µM	-0.312	-0.626	0.977
RPMI 5 mM glucose + 10% dialyzed FBS, 0.000781 µM	94.5	88.6	90.4
RPMI 5 mM glucose + 10% dialyzed FBS, 0.00234 µM	101	105	84.7
RPMI 5 mM glucose + 10% dialyzed FBS, 0.00702 µM	98.4	99	84.5
RPMI 5 mM glucose + 10% dialyzed FBS, 0.0211 µM	116	102	31.1
RPMI 5 mM glucose + 10% dialyzed FBS, 0.0632 µM	17	4.76	6.17
RPMI 5 mM glucose + 10% dialyzed FBS, 0.19 µM	5	2.71	4.26
RPMI 5 mM glucose + 10% dialyzed FBS, 0.569 µM	3.79	2.62	4.12
RPMI 5 mM glucose + 10% dialyzed FBS, 1.71 µM	3	1.7	3.78
RPMI 5 mM glucose + 10% dialyzed FBS, 5.12 µM	1.75	1.34	3.01
RPMI 5 mM glucose + 10% dialyzed FBS, 15.4 µM	1.72	0.782	2.1
RPMI 5 mM glucose + 10% dialyzed FBS, 46.1 µM	-0.0281	-0.254	1.1
